Source: ChEMBL document CHEMBL1144134, “New biphenyl compounds with DNA strand-scission activity from Clusia paralicola” (J Nat Prod, 1999)
≈ marks a conversion by molar mass, not a printed value. Calls of active or inactive are those of the source. The calls are words filed in the database; no cut-off is given here.

What was measured:
[1] = Induction of DNA strand-scission activity assessed as relaxation of supercoiled DNA at 2.5 ug/ml; parameters: scale not given: the % may be the effect or the level left
KB = experiment: Cytotoxicity against human KB cells; type: functional, cell-based

| Activity [1] | SMILES | EC50 (KB) [µg/mL] |
| --- | --- | --- |
| inactive | CC1(C)C=Cc2c(O)cc(-c3ccc(O)cc3)cc2O1 [CLUSIPARALICOLINE C] | 5.3 (≈ 19.8 µM) |
| 77% | CC(C)=CCC/C(C)=C/Cc1cc(O)c(O)cc1-c1cc(O)c(CC=C(C)C)c(O)c1 [CLUSIPARALICOLINE A] | 3.8 (≈ 8.99 µM) |
| 65% | CC(C)=CCC/C(C)=C/Cc1cc(O)c(O)cc1-c1cc(O)c2c(c1)OC(C)(C)C=C2 [CLUSIPARALICOLINE B] | 4.5 (≈ 10.7 µM) |
